Measurements taken from patent US10292390B2, “Inhibition and dispersion of bacterial biofilms with 2-aminobenzimidazole derivatives” (WISCONSIN ALUMNI RESEARCH FOUNDATION, priority 2011, dated 2019).
Entries after “also recorded” stand apart in the source; their conditions may differ.

Experiments:
P. aeruginosa growth = assay: bacterial growth over time (OD600); format: cell-based, Pseudomonas aeruginosa; settings: prior to 12 h; at concentrations as low as 10 μM; diminish by 12 h
Procedure: The effects of compounds 7 and 21 on P. aeruginosa growth were evaluated by monitoring the OD600 as a function of time. Microtiter plates were prepared similar to biofilm dose-response analyses such that final well concentrations upon inoculum addition ranged from 10^x μM where x=3.5, 3, 2.5, 2, 1.5, 1, 0, −1, or −2. Compounds 7 and 21 were tested in replicates of 3 wells, and the OD600 was measured every 1-2 h for 24 h.

COS-7 cells = assay: fluorescence-based live/dead cytotoxicity assay; format: cell-based; settings: 24 hrs, live/dead staining
Procedure: Experiments to characterize the toxicity of exemplary compound 21 in a model mammalian cell line were conducted by incubating COS-7 African Green Monkey kidney cells (American Type Culture Collection, Manassas, Va.), a fibroblast-like mammalian cell line, in the presence of varying amounts of compound 21 and characterizing resulting levels of cell death using a standard fluorescence-based live/dead assay. Cells were seeded in 96-well plates by adding 200 μL of a suspension containing 50,000 cells/mL in cell culture media (Gibco® DMEM supplemented with 10% (v/v) fetal bovine serum, 100 units/mL penicillin, and 100 μg/mL streptomycin) in individual wells of a black-walled, clear-bottomed 96-well cell culture plate (Costar 3603). […] Fluorescence microscopy images of the wells were acquired using an Olympus IX70 microscope and Metavue version 7.1.2.0 software package (Molecular Devices, Toronto, Canada). Images were analyzed using Image J 1.43u (National Institutes of Health; Washington, D.C.). Live and dead cell results were also analyzed by averaging the mean fluorescence from a minimum of six images taken from three replicate samples and normalized to untreated (live control) and methanol-treated (dead control) wells (see FIG. 20).

[1] = solubility of stock in 95:5 M9+:LB media; format: physicochemical; settings: at 3.16 mM in 95:5 M9+:LB media
Procedure: Compounds 7 and 21 were evaluated for their ability to disperse preformed P. aeruginosa biofilms. For biofilm dispersion assessment, the static CV biofilm assay described above was modified in order to introduce compound to preformed biofilm for an additional incubation period. Solvent evaporation delivery of compound was not possible in this format; thus, stock solutions of compounds 7 and 21 were prepared in 95:5 M9+:LB media. Stocks of 7 and 21 were prepared at 3.16 mM and 1 mM, respectively (21 was insoluble at 3.16 mM). These stocks were diluted in series to obtain final concentrations as follows: 10^x μM where x=3.5 (7 only), 3, 2.5, 2, 1.5 (21 only), 1, 0, −1, or −2. Biofilms were allowed to form in microtiter plates in the absence of compound for 24 h, after which non-biofilm material was removed by dumping and washing as normal with sterile PBS. After the second washing, 200 μL of fresh 95:5 M9+:LB media containing compound at various concentrations was added to the wells, and the plates were incubated at 37° C. for an additional 24 h. […] Biofilm was fixed and quantified with CV as described above. The amount of dispersed biofilm was determined via comparison of the amount of biofilm at 48 h in the presence of compound versus the amount of biofilm in the “no compound” positive control at 24 h. […]

P. aeruginosa biofilm = assay: effects of metals on biofilm inhibition; format: cell-based, Pseudomonas aeruginosa; settings: compound at 250 μM; Cu(II)SO4, Fe(II)SO4, Fe(III)Cl3, Zn(II)SO4 up to 1000 μM; 24 h
Procedure: Microtiter plates were first prepared by adding 50 μL aliquots of a 1 mM EtOH stock solution of 7 to each well in order to effect a final well concentration upon inoculum addition of 250 μM; this concentration was chosen as it is approximately the minimum concentration of 7 showing maximal biofilm inhibition. The EtOH was then removed by drying at 37° C., and the plates were sterilized. Directly prior to inoculation, 100 mM stock solutions of metals were freshly prepared in 18 MΩ H2O and diluted in series in a polypropylene 96-well microtiter plate (Costar 3879) to achieve stocks with the following concentrations: 100, 75, 50, 25, 12.5, 6.25, 1.25, 0.25, 0.05, and 0 mM. The choice of metals for evaluation was based on the results of the UV-Vis studies and included Cu(II)SO4, Fe(II)SO4.7H2O, Fe(III)Cl3.6H2O, and Zn(II)SO4.7H2O. Using a 10 μL multi-channel pipette, 2 μL aliquots of the metal stock solutions were added to the side of wells, avoiding contact with dried 7 on the bottom of the well. […] The highest metal:7 ratio obtained was 4:1 (1000 μM metal to 250 μM 7), which was assumed to be sufficient to see any mitigating effect based on our UV-Vis studies. […] All samples were tested in replicates of 3 wells and were assessed for biofilm production after 24 h incubation by CV staining and quantification.

[2] = UV-Vis metal binding studies; format: physicochemical; settings: compound:metal ratios of approximately 1:1; preliminary
Gram-positive bacteria = settings: WO 2010/144686 (7); ref. 34 (18); cited from earlier work

Question: Which results are given for `Cc1cc2nc(N)[nH]c2cc1C` [Compound 21, 5,6-Dimethyl-2-aminobenzimidazole]?
Answer: growth inhibition versus positive control (P. aeruginosa growth): greater than 20%; concentrations at which not substantially cytotoxic (COS-7 cells): below 0.25 mM; solubility [1]: insoluble

Question: What does the source list for `Nc1nc2ccccc2[nH]1` [Compound 7, 2-aminobenzimidazole]?
Answer: mitigating effect of metals on biofilm inhibitory activity (P. aeruginosa biofilm): none of the tested metals were able to mitigate the biofilm inhibitory activity; also recorded: observed no change in activity; interaction with metals [2]: able to interact with certain metals; biofilm inhibition in Gram-positive bacteria as reported (Gram-positive bacteria): no inhibition of biofilm formation
